Article PMC9482650, “Quantitative fragmentomics allow affinity mapping of interactomes” (Nature Communications, 2022)
Like-named read-outs stand apart in the source and are kept apart here. Primed or numbered codes have the meaning given here. Ends that are not written are not given here. * marks the point of attachment. Biotin = O=C1N[C@H]2[C@H](CS[C@H]2CCCCC(=O)*)N1; ttds″ = trioxatridecan-succinamic acid linker

Tests used:
[1] = target: T1, SCRIB2 PDZ (Homo sapiens, UniProt Q14160); assay: Holdup assay; assay type: binding
T1 sequence (Q14160 862-950 limits assumed): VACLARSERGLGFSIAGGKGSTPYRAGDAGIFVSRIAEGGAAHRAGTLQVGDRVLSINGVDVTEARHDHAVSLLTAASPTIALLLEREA

[2] = target: SNX27 PDZ (Homo sapiens, UniProt Q96L92); assay: Holdup assay; assay type: binding
[3] = target: SCRIB_1 PDZ (Homo sapiens, UniProt Q14160); assay: Holdup assay; assay type: binding
[4] = target: T2, TX1BP3 PDZ (Homo sapiens, UniProt O14907); assay: Holdup assay; assay type: binding
T2 sequence (O14907 15-112 limits assumed): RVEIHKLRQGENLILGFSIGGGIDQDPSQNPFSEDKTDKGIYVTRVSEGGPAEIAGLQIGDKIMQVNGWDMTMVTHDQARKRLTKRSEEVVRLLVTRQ

[5] = target: DLG1_1 PDZ (Homo sapiens, UniProt Q12959); assay: Holdup assay; assay type: binding
[6] = target: DLG1_2 PDZ (Homo sapiens, UniProt Q12959); assay: Holdup assay; assay type: binding
[7] = system: CPVL; assay: PBM-AP-MS from HeLa extract; assay type: binding, Homo sapiens; details: prey CPVL (Q9H3G5), PBM bait vs biotin control
[8] = system: MAGI1; assay: PBM-AP-MS from Jurkat extract; assay type: binding, Homo sapiens
Experimental: (§1) For PBM-AP-MS experiments, 30 μl streptavidin resin was mixed with biotin or peptide at 50–60 μM concentration in 6–6.5 resin volume for 60 min to achieve resin saturation. For PDZ-AP-MS experiments, 30 μl streptavidin resin was mixed with biotinylated MBP or MBP-PDZ at 40-50 μM concentration in >1000× resin volume for 60 min to achieve resin saturation. After saturation, resins were washed a single time (ten resin volume, holdup buffer), and were depleted with biotin (1 mM biotin, 5–10 resin volume, 10 min). Finally, resins were washed two times. 0.5 ml 2 mg/ml cell lysate was added to the dry resin (1 mg total input) and were incubated at 4 °C for 2 h. Then, the beads were washed three times with 10 resin volume buffer containing: 50 mM TRIS pH 8.5, 150 mM NaCl, 1% TritonX-100, 10× complete EDTA-free protease inhibitor cocktail, 2 mM EDTA, 1 mM TCEP. Then, the beads were washed two times with ten resin volume buffer containing: 50 mM TRIS pH 8.5, 150 mM NaCl, 1 mM TCEP. Finally, captured protein was eluted from the resin in two steps and the eluted fractions were pooled. For each elution the beads were incubated for 30 min with three resin volume buffer containing: 20 mM TRIS pH8.5, 100 mM NaCl, 500 μM TCEP, 8 M Urea. Between each step, the beads were separated by mild centrifugation and the supernatant was removed by gentle pipetting.
(§2) Proteins were identified by database searching using SequestHT (Thermo Fisher Scientific) with Proteome Discoverer 2.4 software (PD2.4, Thermo Fisher Scientific) on human FASTA database downloaded from SwissProt (reviewed, release 2020_11_27, 20304 entries, https://www.uniprot.org/). Precursor and fragment mass tolerances were set at 7 ppm and 0.6 Da respectively, and up to two missed cleavages were allowed. Oxidation (M, +15.995 Da) was set as variable modification, and Carbamidomethylation (C, +57.021 Da) as fixed modification. Peptides and proteins were filtered with a false discovery rate at 1%. Label-free quantification was based on the extracted ion chromatography intensity of the peptides. All samples were measured in technical triplicates. The measured extracted ion chromatogram (XIC) intensities were normalized based on median intensities of the entire dataset to correct minor loading differences. For statistical tests and enrichment calculations, not detectable intensity values were treated with an imputation method, where the missing values were replaced by random values similar to the 10% of the lowest intensity values present in the entire dataset. Unpaired two-tailed T-test, assuming equal variance, were performed on obtained log2 XIC intensities. The detection threshold for enriched proteins in AP-MS experiments were analyzed above twofold enrichment with <0.01 P value. Then, proteins with PDZ-domains or PBMs were extracted from the list of enriched proteins. In case only a specific isoform of the detected protein contains a PBM, the identified peptide fragments were manually checked to check which isoform(s) were most likely detected. All raw LC-MS/MS data (from 165 runs) have been deposited to the ProteomeXchange via the PRIDE database with identifier PXD027743.

[9] = system: LIN7C; assay: PBM-AP-MS from Jurkat extract; assay type: binding, Homo sapiens
Experimental: as §1, §2

[10] = system: SCRIB; assay: PBM-AP-MS from Jurkat extract; assay type: binding, Homo sapiens
Experimental: as §1, §2

[11] = system: DLG1; assay: PBM-AP-MS from Jurkat extract; assay type: binding, Homo sapiens
Experimental: as §1, §2

[12] = system: LIN7C; assay: PBM-AP-MS from HeLa extract; assay type: binding, Homo sapiens; details: prey LIN7C (Q9NUP9), PBM bait vs biotin control
[13] = system: KRT83; assay: PBM-AP-MS from HeLa extract; assay type: binding, Homo sapiens; details: prey KRT83 (P78385), PBM bait vs biotin control
Text: (§3) Supplement 41467_2022_33018_MOESM5_ESM.xlsx, sheet "HeLa HPV82-E6" | column: -LOG(P-Value); Difference log2; Ratio HPV82E6/Biot

[14] = system: MPP7; assay: PBM-AP-MS from HeLa extract; assay type: binding, Homo sapiens; details: prey MPP7 (Q5T2T1), PBM bait vs biotin control
Text: as §3

[15] = system: SCRIB; assay: PBM-AP-MS from HeLa extract; assay type: binding, Homo sapiens; details: prey SCRIB (Q14160), PBM bait vs biotin control
[16] = system: LGALS7; assay: PBM-AP-MS from Jurkat extract; assay type: binding, Homo sapiens; details: prey LGALS7 (P47929), PBM bait vs biotin control
Text: Supplement 41467_2022_33018_MOESM5_ESM.xlsx, sheet "Jurkat HPV82-E6" | column: -LOG(P-Value); Difference log2; Ratio HPV82/biot

[17] = system: SLC9A3R2; assay: PBM-AP-MS from HaCat extract; assay type: binding, Homo sapiens; details: prey SLC9A3R2 (Q15599), PBM bait vs biotin control (Biot03)
[18] = system: CASK; assay: PBM-AP-MS from Jurkat extract; assay type: binding, Homo sapiens; details: Jurkat lysate
Experimental: as §1, §2

[19] = system: LIN7C; assay: PBM-AP-MS from HaCat extract; assay type: binding, Homo sapiens; details: prey LIN7C (Q9NUP9), PBM bait vs biotin control (Biot03)
[20] = system: SYNJ2BP; assay: PBM-AP-MS from HaCat extract; assay type: binding, Homo sapiens; details: prey SYNJ2BP (P57105), PBM bait vs biotin control (Biot03)
[21] = system: CASK; assay: PBM-AP-MS from HaCat extract; assay type: binding, Homo sapiens; details: prey CASK (O14936), PBM bait vs biotin control (Biot03)
[22] = system: MPP7; assay: PBM-AP-MS from HaCat extract; assay type: binding, Homo sapiens; details: prey MPP7 (Q5T2T1), PBM bait vs biotin control (Biot03)
[23] = system: PDZK1; assay: PBM-AP-MS from HeLa extract; assay type: binding, Homo sapiens; details: prey PDZK1 (Q5T2W1), PBM bait vs biotin control
[24] = system: SNTB2; assay: PBM-AP-MS from HeLa extract; assay type: binding, Homo sapiens; details: prey SNTB2 (Q13425), PBM bait vs biotin control
[25] = holdup affinity of the PBM peptide of the named protein, sheet PBMcomplexome, lower sub-table, 3.5 appears to be the floor for no detectable binding, read-out: affinity of PBM to SCRIB_2 (pKd) (converted)
[26] = holdup affinity of the PBM peptide of the named protein, sheet PBMcomplexome, lower sub-table
[27] = holdup affinity of the PBM peptide of the named protein, sheet PBMcomplexome, lower sub-table, 3.5 appears to be the floor for no detectable binding, read-out: affinity of PBM to SCRIB_1 (pKd) (converted)
[28] = holdup affinity of the PBM peptide of the named protein, sheet PBMcomplexome, lower sub-table, 3.5 appears to be the floor for no detectable binding, read-out: affinity of PBM to TX1BP3 (pKd) (converted)
[29] = holdup affinity of the PBM peptide of the named protein, sheet PBMcomplexome, lower sub-table, 3.5 appears to be the floor for no detectable binding, read-out: affinity of PBM to DLG1_2 (pKd) (converted)
[30] = PBM motif of the named protein vs SCRIB_1 PDZ, read-out: pKd values – domain-motif, SCRIB_1 (converted)
[31] = PBM motif of the named protein vs TX1BP3 PDZ, read-out: pKd values – domain-motif, TX1BP3 (converted)
[32] = PBM motif of the named protein vs DLG1_1 PDZ, read-out: pKd values – domain-motif, DLG1_1 (converted)
[33] = PBM motif of the named protein vs DLG1_2 PDZ, read-out: pKd values – domain-motif, DLG1_2 (converted)
[34] = Jurkat extract, prey MAGI1 (Q96QZ7), PBM bait vs biotin control
[35] = Jurkat extract, prey LIN7C (Q9NUP9), PBM bait vs biotin control
[36] = Jurkat extract, prey SCRIB (Q14160), PBM bait vs biotin control
[37] = Jurkat extract, prey DLG1 (Q12959), PBM bait vs biotin control
[38] = fold enrichment of prey vs biotin control resin, Jurkat lysate
[39] = prey enrichment on PBM bait resin vs biotin control resin, Jurkat lysate, technical triplicates
[40] = PBM motif of the named protein vs SCRIB_2 PDZ, read-out: pKd values – domain-motif, SCRIB_2 (converted)

Chain of SCRIB_1 PDZ (Q14160 728-815 limits assumed): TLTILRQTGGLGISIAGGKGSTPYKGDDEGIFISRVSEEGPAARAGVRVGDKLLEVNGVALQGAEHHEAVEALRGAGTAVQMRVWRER

PKRPFVESNV [TANC2]
Kd [1, 25]: 25.7 µM
Kd [2, 26]: 15.8 µM
Kd [3, 27]: 17.8 µM
Kd [4, 28]: 1.26 µM
Kd ([5]; holdup affinity of the PBM peptide of the named protein, sheet PBMcomplexome, lower sub-table, 3.5 appears to be the floor for no detectable binding, read-out: affinity of PBM to DLG1_1 (pKd) (converted)): 49 µM
Kd [6, 29]: 22.4 µM

IKAIVDLTGL [TRAF2]
Kd [2, 26]: 309 µM

LCALPKVTTV [AGMAT]
Kd [2]: 37.2 µM
Kd [3, 30]: 40.7 µM
Kd [4, 31]: 85.1 µM
Kd [5, 32]: 10.7 µM
Kd [6, 33]: 1.35 µM

HPV82-E6 ({Biotin-ttds″}-PPRQRSETQV)
Difference log2 [7]: 3.939
Ratio bait/biot [7]: 15.3339
Difference log2 [8, 34]: 5.746
Ratio bait/biot [8, 34]: 53.6695
Difference log2 [9, 35]: 5.109
Ratio bait/biot [9, 35]: 34.5003
Difference log2 [10, 36]: 7.318
Ratio bait/biot [10, 36]: 159.61
Difference log2 [11, 37]: 8.838
Ratio bait/biot [11, 37]: 457.64
Difference log2 [12]: 7.066
Ratio bait/biot [12]: 134.006
Difference log2 [13]: 3.605
Ratio bait/biot [13]: 12.1643
Difference log2 [14]: 3.556
Ratio bait/biot [14]: 11.7654
Difference log2 [15]: 7.349
Ratio bait/biot [15]: 163.074
Difference log2 [16]: 4.513
Ratio bait/biot [16]: 22.8362

GYDWGPATDL [TJP3/ZO3]
Kd [1, 25]: 166 µM
Kd [2, 26]: 229 µM
Kd [3, 27]: 174 µM
Kd [4, 28]: 40.7 µM
Kd [6, 29]: 245 µM

TESNLQTSSC [CGN]
Kd [2]: 22.4 µM

SSRTRRETQL [HPV16-E6]
Difference log2 [7]: 4.342
Ratio bait/biot [7]: 20.282
Difference log2 [17]: 3.853
Ratio bait/Biot03 [17]: 14.4499
Ratio bait/biot [8, 38]: 36.8169
Difference log2 [8, 39]: 5.2023
Ratio bait/biot [9, 38]: 32.0459
Difference log2 [9, 39]: 5.002
Ratio bait/biot [10, 38]: 256.729
Difference log2 [10, 39]: 8.0041
Ratio bait/biot [11, 38]: 502.402
Difference log2 [11, 39]: 8.9727
Ratio bait/biot ([18]; fold enrichment of prey vs biotin control resin): 11.3007
Difference log2 ([18]; prey enrichment on PBM bait resin vs biotin control resin, technical triplicates): 3.498
Difference log2 [19]: 8.385
Ratio bait/Biot03 [19]: 334.203
Difference log2 [20]: 4.095
Ratio bait/Biot03 [20]: 17.0893
Difference log2 [21]: 6.666
Ratio bait/Biot03 [21]: 101.558
Difference log2 [22]: 5.9997
Ratio bait/Biot03 [22]: 63.9865
Difference log2 [12]: 7.182
Ratio bait/biot [12]: 145.232
Difference log2 [15]: 7.71
Ratio bait/biot [15]: 209.394
Difference log2 [23]: 4.4
Ratio bait/biot [23]: 21.1168
Difference log2 [24]: 5.25
Ratio bait/biot [24]: 38.0503

PKRSFIESNV [TANC1]
Kd [1, 40]: 13.2 µM
Kd [2]: 3.09 µM
Kd [3, 30]: 6.31 µM
Kd [4, 31]: 1.91 µM
Kd [5, 32]: 20.4 µM
Kd [6, 33]: 11 µM

PELESKESVL [SLC1A4]
Kd [2]: 3.72 µM
Kd [3, 30]: 66.1 µM
Kd [4, 31]: 79.4 µM
Kd [5, 32]: 309 µM
Kd [6, 33]: 91.2 µM

KIEDVEITLV [FCHSD2]
Kd [2]: 9.77 µM
Kd [3, 30]: 158 µM
Kd [4, 31]: 105 µM
Kd [5, 32]: 162 µM
Kd [6, 33]: 50.1 µM

LESTTVGTSV [KARS1]
Kd [1, 40]: 34.7 µM
Kd [2]: 35.5 µM
Kd [3, 30]: 155 µM
Kd [4, 31]: 251 µM
Kd [5, 32]: 53.7 µM
Kd [6, 33]: 45.7 µM

KQVVPFSSSV [GDA]
Kd [2]: 295 µM
Kd [3, 30]: 309 µM
Kd [4, 31]: 49 µM
Kd [5, 32]: 129 µM
Kd [6, 33]: 41.7 µM

PRVKPQRSKV [PPP1R13L]
Kd [4, 31]: 151 µM

CC(C)C[C@H](NC(=O)[C@H](CC(=O)O)NC(=O)[C@@H](NC(=O)[C@H](CC(=O)O)NC(=O)[C@H](Cc1ccccc1)NC(=O)[C@H](Cc1c[nH]c2ccccc12)NC(=O)[C@H](C)NC(=O)[C@H](CC(C)C)NC(=O)[C@H](CCC(N)=O)NC(=O)[C@@H](N)CC(N)=O)[C@@H](C)O)C(=O)O [CTNNB1]
Kd [1, 40]: 269 µM
Kd [2]: 12.3 µM
Kd [3, 30]: 13.8 µM
Kd [4, 31]: 1.02 µM
